Structures can show the parent of a compound that is named as a salt.
What follows are compounds tested against TPH1 (tryptophan hydroxylase 1) (Homo sapiens (Human), UniProt P17752) (assay: TPH1 inhibitor screening assay kit (BPS Bioscience), fluorescence). Details: TPH1.
Type: biochemical
Protocol: In order to confirm the inhibitory effect of the compound represented by formula 1 according to the present invention on the tryptophan hydroxylase activity, it was measured using a TPH1 (tryptophan hydroxylase 1) inhibitor screening assay kit (BPS Bioscience, Catalog #72053). The TPH1 inhibitor screening assay kit was used according to the manufacturer's manual.
Particularly, the synthesized compound was dissolved in DMSO, which was added to a 96-well microplate (10 ? /well), to which TPH1 enzyme was added (40 ? /well). Then, TPH1 reaction solution was added to the microplate (50 ? /well) and the microplate was shaded with aluminum foil. The microplate was transferred to 4° C. environment, shaken carefully and incubated for 4 hours. After adding a quench solution to the microplate (10 ? /well), the TPH1 activity was measured by reading the degree of fluorescence color development with a Flexstation3 microplate reader. At this time, the excitation spectrum was 300 nm and the emission spectrum was 360 nm.

Chain of TPH1 (tryptophan hydroxylase 1) (P17752 whole entry): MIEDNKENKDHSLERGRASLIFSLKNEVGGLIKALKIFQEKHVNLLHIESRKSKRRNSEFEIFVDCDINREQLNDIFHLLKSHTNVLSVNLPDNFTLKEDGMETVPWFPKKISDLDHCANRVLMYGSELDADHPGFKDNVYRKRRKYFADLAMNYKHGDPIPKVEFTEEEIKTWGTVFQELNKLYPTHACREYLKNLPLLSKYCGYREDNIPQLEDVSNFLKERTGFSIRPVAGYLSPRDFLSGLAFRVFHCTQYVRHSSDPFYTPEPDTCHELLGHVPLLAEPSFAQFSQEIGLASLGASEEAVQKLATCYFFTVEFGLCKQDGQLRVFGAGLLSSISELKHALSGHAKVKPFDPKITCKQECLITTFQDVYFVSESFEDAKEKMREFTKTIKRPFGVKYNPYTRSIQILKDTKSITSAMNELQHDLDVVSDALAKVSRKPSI

SMILES	IC50
Cc1ccn(-c2cc(Cl)ccc2[C@@H](Oc2cc(C3=CCC(C[C@H](N)C(=O)O)CC3)nc(N)n2)C(F)(F)F)n1 (stereo partly drawn) [Example 45, (2S)-2-amino-3-(4-(2-amino-6-((R)-1-(4-chloro-2-(3-methyl-1H-pyrazole-1-yl)phenyl)-2,2,2-trifluoroethoxy)pyrimidine-4-yl)cyclohex-3-ene-1-yl)propionic acid]	98 nM
Nc1nc(O[C@H](c2ccc(Cl)cc2C2=CCCOC2)C(F)(F)F)cc(C2=CCC(C[C@H](N)C(=O)O)CC2)n1 (stereo partly drawn) [Example 67, (2S)-2-amino-3-(4-(2-amino-6-((R)-1-(4-chloro-2-(5,6-dihydro-2H-pyran-3-yl)phenyl)-2,2,2-trifluoroethoxy)pyrimidine-4-yl)cyclohex-3-ene-1-yl)propionic acid]	91 nM
Cc1ccn(-c2cc(Cl)ccc2[C@@H](Oc2ncnc3c(-c4ccc(C[C@H](N)C(=O)O)cc4)csc23)C(F)(F)F)n1 [Example 8, (S)-2-amino-3-(4-(4-((R)-1-(4-chloro-2-(3-methyl-1H-pyrazole-1-yl)phenyl)-2,2,2-trifluoroethoxy)thieno[3,2-d]pyrimidine-7-yl)phenyl)propionic acid hydrochloride]	36 nM

Same assay, conditions: TPH1 enzyme, 4 hours at 4° C., ex 300 nm / em 360 nm

SMILES	IC50
Cc1ccn(-c2cc(Cl)ccc2[C@@H](Oc2cc(C3=CCC(C[C@H](N)C(=O)O)CC3)nc(N)n2)C(F)(F)F)n1 (stereo partly drawn) [Example 45, (2S)-2-amino-3-(4-(2-amino-6-((R)-1-(4-chloro-2-(3-methyl-1H-pyrazole-1-yl)phenyl)-2,2,2-trifluoroethoxy)pyrimidine-4-yl)cyclohex-3-ene-1-yl)propionic acid]	98 nM
Cc1ccn(-c2cc(Cl)ccc2[C@@H](Oc2cc(C3=CCC4(CC3)CNC(C(=O)O)C4)nc(N)n2)C(F)(F)F)n1 (stereo partly drawn) [Example 80, 8-(2-amino-6-((R)-1-(4-chloro-2-(3-methyl-1H-pyrazole-1-yl)phenyl)-2,2,2-trifluoroethoxy)pyrimidine-4-yl)-2-azaspiro[4.5]dec-7-ene-3-carboxylic acid]	194 nM
Nc1nc(O[C@H](c2ccc(Cl)cc2C2=CCC(F)(F)CC2)C(F)(F)F)cc(C2=CCC(C[C@H](N)C(=O)O)CC2)n1 (stereo partly drawn) [Example 75, (2S)-2-amino-3-(4-(2-amino-6-((R)-1-(5-chloro-4′,4′difluoro-2′,3′,4′,5′-tetrahydro-[1,1′-biphenyl]-2-yl)-2,2,2-trifluoroethoxy)pyrimidine-4-yl)cyclohex-3-ene-1-yl)propionic acid hydrochloride]	443 nM
COc1cccc(-c2ccc(Cn3ccc4c(-c5ccc(C[C@H](N)C(=O)O)cc5)nc(N)nc43)cc2)c1 [Example 12, (S)-2-amino-3-(4-(2-amino-7-((3′-methoxy-[1,1′-biphenyl]-4-yl)methyl)-7H-pyrrolo[2,3-d]pyrimidine-4-yl)phenyl)propionic acid hydrochloride]	297 nM
N[C@@H](Cc1ccc(-c2csc3c(OC(c4ccc(Cl)cc4-c4ccc(F)cc4)C(F)(F)F)ncnc23)cc1)C(=O)O (stereo partly drawn) [Example 46, (2S)-2-amino-3-(4-(4-(1-(5-chloro-4′-fluoro-[1,1′-biphenyl]-2-yl)-2,2,2-trifluoroethoxy)thieno[3,2-d]pyrimidine-7-yl)phenyl)propionic acid hydrochloride]	8720 nM
Cc1ccn(-c2cc(Cl)ccc2[C@@H](Oc2ncnc3c(-c4ccc(C[C@H](N)C(=O)O)cc4)csc23)C(F)(F)F)n1 [Example 8, (S)-2-amino-3-(4-(4-((R)-1-(4-chloro-2-(3-methyl-1H-pyrazole-1-yl)phenyl)-2,2,2-trifluoroethoxy)thieno[3,2-d]pyrimidine-7-yl)phenyl)propionic acid hydrochloride]	36 nM
Nc1nc(O[C@H](c2ccc(Cl)cc2C2=CCOCC2)C(F)(F)F)cc(C2=CCC3(CC2)CNC(C(=O)O)C3)n1 (stereo partly drawn) [Example 83, 8-(2-amino-6-((R)-1-(4-chloro-2-(3,6-dihydro-2H-pyran-4-yl)phenyl)-2,2,2-trifluoroethoxy)pyrimidine-4-yl)-2-azaspiro[4.5]dec-7-ene-3-carboxylic acid hydrochloride]	1150 nM
Nc1nc(OC(c2ccc(Cl)cc2-c2ccccc2)C(F)(F)F)cc(C2=CCC(C[C@H](N)C(=O)O)CC2)n1 (stereo partly drawn) [Example 48, (2S)-2-amino-3-(4-(2-amino-6-(1-(5-chloro-[1,1′-biphenyl]-2-yl)-2,2,2-trifluoroethoxy)pyrimidine-4-yl)cyclohex-3-ene-1-yl)propionic acid hydrochloride]	433 nM
N[C@@H](Cc1ccc(-c2csc3c(OC(c4ccc(Cl)cc4-c4ccccc4)C(F)(F)F)ncnc23)cc1)C(=O)O (stereo partly drawn) [Example 26, (2S)-2-amino-3-(4-(4-(1-(5-chloro-[1,1′-biphenyl]-2-yl)-2,2,2-trifluoroethoxy)thieno[3,2-d]pyrimidine-7-yl)phenyl)propionic acid hydrochloride]	679 nM
Nc1nc(O[C@H](c2ccc(Cl)cc2C2=CCCOC2)C(F)(F)F)cc(C2=CCC3(CC2)CNC(C(=O)O)C3)n1 (stereo partly drawn) [Example 94, 8-(2-amino-6-((R)-1-(4-chloro-2-(5,6-dihydro-2H-pyran-3-yl)phenyl)-2,2,2-trifluoroethoxy)pyrimidine-4-yl)-2-azaspiro[4.5]dec-7-ene-3-carboxylic acid hydrochloride]	209 nM
Cc1ccn(-c2cc(Cl)ccc2[C@@H](Oc2nc(N)nc3c(-c4ccc(C[C@H](N)C(=O)O)cc4)csc23)C(F)(F)F)n1 [Example 91, (S)-2-amino-3-(4-(2-amino-4-((R)-1-(4-chloro-2-(3-methyl-1H-pyrazole-1-yl)phenyl)-2,2,2-trifluoroethoxy)thieno[3,2-d]pyrimidine-7-yl)phenyl)propionic acid hydrochloride]	208 nM
N[C@@H](Cc1ccc(-c2csc3c(O[C@H](c4ccc(Cl)cc4C4=CCCOC4)C(F)(F)F)ncnc23)cc1)C(=O)O [Example 70, (S)-2-amino-3-(4-(4-((R)-1-(4-chloro-2-(5,6-dihydro-2H-pyran-3-yl)phenyl)-2,2,2-trifluoroethoxy)thieno[3,2-d]pyrimidine-7-yl)phenyl)propionic acid]	371 nM
COc1cccc(-c2ccc([C@@H](Oc3cc(C4=CCC(C[C@H](N)C(=O)O)CC4)nc(N)n3)C(F)(F)F)cc2)c1 (stereo partly drawn) [Example 58, (2S)-2-amino-3-(4-(2-amino-6-((R)-2,2,2-trifluoro-1-(3′-methoxy-[1,1′-biphenyl]-4-yl)ethoxy)pyrimidine-4-yl)cyclohex-3-ene-1-yl)propionic acid]	204 nM
COc1cccc(-c2ccc(Cn3ccc4c(-c5ccc(C[C@H](N)C(=O)O)cc5)ncnc43)cc2)c1 [Example 23, (S)-2-amino-3-(4-(7-((3′-methoxy-[1,1′-biphenyl]-4-yl)methyl)-7H-pyrrolo[2,3-d]pyrimidine-4-yl)phenyl)propionic acid hydrochloride]	578 nM
Cc1ccn(-c2cc(Cl)ccc2[C@@H](Oc2cc(C3=CCC(C[C@H](N)C(=O)O)CC3)nc(C)n2)C(F)(F)F)n1 (stereo partly drawn) [Example 32, (2S)-2-amino-3-(4-(6-((R)-1-(4-chloro-2-(3-methyl-1H-pyrazole-1-yl)phenyl)-2,2,2-trifluoroethoxy)-2-methylpyrimidine-4-yl)cyclohex-3-ene-1-yl)propionic acid hydrochloride]	1820 nM
COc1cccc(-c2ccc([C@@H](Oc3cc(C4=CCC5(CC4)CNC(C(=O)O)C5)nc(N)n3)C(F)(F)F)cc2)c1 (stereo partly drawn) [Example 89, 8-(2-amino-6-((R)-2,2,2-trifluoro-1-(3′-methoxy-[1,1′-biphenyl]-4-yl)ethoxy)pyrimidine-4-yl)-2-azaspiro[4.5]dec-7-ene-3-carboxylic acid]	409 nM

Same assay, conditions: TPH1 enzyme, 4 hours at 4° C., ex 300 nm / em 360 nm; hydrochloride

SMILES	IC50
COc1cccc(-c2ccc([C@@H](Oc3cc(C4=CCC(C[C@H](N)C(=O)O)CC4)nc(N)n3)C(F)(F)F)cc2)c1 (stereo partly drawn) [Example 34, (2S)-2-amino-3-(4-(2-amino-6-((R)-2,2,2-trifluoro-1-(3′-methoxy-[1,1′-biphenyl]-4-yl)ethoxy)pyrimidine-4-yl)cyclohex-3-ene-1-yl)propionic acid hydrochloride]	281 nM
Cc1ccn(-c2cc(Cl)ccc2[C@@H](Oc2cc(C3=CCC4(CC3)CNC(C(=O)O)C4)nc(N)n2)C(F)(F)F)n1 (stereo partly drawn) [Example 79, 8-(2-amino-6-((R)-1-(4-chloro-2-(3-methyl-1H-pyrazole-1-yl)phenyl)-2,2,2-trifluoroethoxy)pyrimidine-4-yl)-2-azaspiro[4.5]dec-7-ene-3-carboxylic acid hydrochloride]	185 nM
N[C@@H](Cc1ccc(-c2csc3c(O[C@H](c4ccc(Cl)cc4C4=CCCOC4)C(F)(F)F)ncnc23)cc1)C(=O)O [Example 69, (S)-2-amino-3-(4-(4-((R)-1-(4-chloro-2-(5,6-dihydro-2H-pyran-3-yl)phenyl)-2,2,2-trifluoroethoxy)thieno[3,2-d]pyrimidine-7-yl)phenyl)propionic acid hydrochloride]	263 nM
COc1cccc(-c2ccc([C@@H](Oc3cc(C4=CCC5(CC4)CNC(C(=O)O)C5)nc(N)n3)C(F)(F)F)cc2)c1 (stereo partly drawn) [Example 87, 8-(2-amino-6-((R)-2,2,2-trifluoro-1-(3′-methoxy-[1,1′-biphenyl]-4-yl)ethoxy)pyrimidine-4-yl)-2-azaspiro[4.5]dec-7-ene-3-carboxylic acid hydrochloride]	741 nM
Cc1ccn(-c2cc(Cl)ccc2[C@@H](Oc2cc(C3=CCC(C[C@H](N)C(=O)O)CC3)nc(N)n2)C(F)(F)F)n1 (stereo partly drawn) [Example 31, (2S)-2-amino-3-(4-(2-amino-6-((R)-1-(4-chloro-2-(3-methyl-1H-pyrazole-1-yl)phenyl)-2,2,2-trifluoroethoxy)pyrimidine-4-yl)cyclohex-3-ene-1-yl)propionic acid hydrochloride]	114 nM
Nc1nc(O[C@H](c2ccc(Cl)cc2C2=CCCOC2)C(F)(F)F)cc(C2=CCC(C[C@H](N)C(=O)O)CC2)n1 (stereo partly drawn) [Example 66, (2S)-2-amino-3-(4-(2-amino-6-((R)-1-(4-chloro-2-(5,6-dihydro-2H-pyran-3-yl)phenyl)-2,2,2-trifluoroethoxy)pyrimidine-4-yl)cyclohex-3-ene-1-yl)propionic acid hydrochloride]	125 nM

Source: US11407763B2, “Tryptophan hydroxylase inhibitor and pharmaceutical composition including same” (GWANGJU INSTITUTE OF SCIENCE AND TECHNOLOGY, priority 2017, dated 2022)
